Values of other authors, collected in patent publication US5827837A, “Polyanion anti-inflammatory agents” (priority 1996, dated 1998).

Details: Ca^2+; read-out: Kd, calcium binding; cited from earlier work

SMILES: O=P(O)(O)O[C@H]1[C@H](OP(=O)(O)O)[C@@H](OP(=O)(O)O)[C@H](OP(=O)(O)O)[C@@H](OP(=O)(O)O)[C@H]1OP(=O)(O)O [InsP6, myo-inositol hexakisphosphate]
- Kd: ~5 µM
